# Experimental data: patent US12421225B2, “Heteroaromatic amide derivative and medicament containing the same” (KAKEN PHARMACEUTICAL CO., LTD., priority 2018, dated 2025)
# pIC50: −log10 of the molar value.
# Tests used:
# human Nav1.7 = human Nav1.7 (Homo sapiens (Human), UniProt Q15858); test: Human Nav1.7 inhibitory activity evaluation (automated patch clamp QPatch16X, HEK293A cells stably expressing human Nav1.7 and human Navβ1); type: cell-based
# How it was run: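 QPatch16X whole-cell recordings at room temperature from HEK293A cells stably expressing human Nav1.7 with Navβ1, CsF-based internal solution, pH 7.4 external, 0.1% DMSO. From −100 mV holding, protocol included a 15 s hold at a potential inactivating ~30-40% of channels; IC50 from inward current at the second −10 mV pulse.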
# human Nav1.5 = human Nav1.5 (Homo sapiens (Human), UniProt Q14524); test: Human Nav1.5 inhibitory activity evaluation (automated patch clamp QPatch16X, HEK293 cells stably expressing human Nav1.5); type: cell-based
# human Nav1.5, sequence (Q14524 whole entry): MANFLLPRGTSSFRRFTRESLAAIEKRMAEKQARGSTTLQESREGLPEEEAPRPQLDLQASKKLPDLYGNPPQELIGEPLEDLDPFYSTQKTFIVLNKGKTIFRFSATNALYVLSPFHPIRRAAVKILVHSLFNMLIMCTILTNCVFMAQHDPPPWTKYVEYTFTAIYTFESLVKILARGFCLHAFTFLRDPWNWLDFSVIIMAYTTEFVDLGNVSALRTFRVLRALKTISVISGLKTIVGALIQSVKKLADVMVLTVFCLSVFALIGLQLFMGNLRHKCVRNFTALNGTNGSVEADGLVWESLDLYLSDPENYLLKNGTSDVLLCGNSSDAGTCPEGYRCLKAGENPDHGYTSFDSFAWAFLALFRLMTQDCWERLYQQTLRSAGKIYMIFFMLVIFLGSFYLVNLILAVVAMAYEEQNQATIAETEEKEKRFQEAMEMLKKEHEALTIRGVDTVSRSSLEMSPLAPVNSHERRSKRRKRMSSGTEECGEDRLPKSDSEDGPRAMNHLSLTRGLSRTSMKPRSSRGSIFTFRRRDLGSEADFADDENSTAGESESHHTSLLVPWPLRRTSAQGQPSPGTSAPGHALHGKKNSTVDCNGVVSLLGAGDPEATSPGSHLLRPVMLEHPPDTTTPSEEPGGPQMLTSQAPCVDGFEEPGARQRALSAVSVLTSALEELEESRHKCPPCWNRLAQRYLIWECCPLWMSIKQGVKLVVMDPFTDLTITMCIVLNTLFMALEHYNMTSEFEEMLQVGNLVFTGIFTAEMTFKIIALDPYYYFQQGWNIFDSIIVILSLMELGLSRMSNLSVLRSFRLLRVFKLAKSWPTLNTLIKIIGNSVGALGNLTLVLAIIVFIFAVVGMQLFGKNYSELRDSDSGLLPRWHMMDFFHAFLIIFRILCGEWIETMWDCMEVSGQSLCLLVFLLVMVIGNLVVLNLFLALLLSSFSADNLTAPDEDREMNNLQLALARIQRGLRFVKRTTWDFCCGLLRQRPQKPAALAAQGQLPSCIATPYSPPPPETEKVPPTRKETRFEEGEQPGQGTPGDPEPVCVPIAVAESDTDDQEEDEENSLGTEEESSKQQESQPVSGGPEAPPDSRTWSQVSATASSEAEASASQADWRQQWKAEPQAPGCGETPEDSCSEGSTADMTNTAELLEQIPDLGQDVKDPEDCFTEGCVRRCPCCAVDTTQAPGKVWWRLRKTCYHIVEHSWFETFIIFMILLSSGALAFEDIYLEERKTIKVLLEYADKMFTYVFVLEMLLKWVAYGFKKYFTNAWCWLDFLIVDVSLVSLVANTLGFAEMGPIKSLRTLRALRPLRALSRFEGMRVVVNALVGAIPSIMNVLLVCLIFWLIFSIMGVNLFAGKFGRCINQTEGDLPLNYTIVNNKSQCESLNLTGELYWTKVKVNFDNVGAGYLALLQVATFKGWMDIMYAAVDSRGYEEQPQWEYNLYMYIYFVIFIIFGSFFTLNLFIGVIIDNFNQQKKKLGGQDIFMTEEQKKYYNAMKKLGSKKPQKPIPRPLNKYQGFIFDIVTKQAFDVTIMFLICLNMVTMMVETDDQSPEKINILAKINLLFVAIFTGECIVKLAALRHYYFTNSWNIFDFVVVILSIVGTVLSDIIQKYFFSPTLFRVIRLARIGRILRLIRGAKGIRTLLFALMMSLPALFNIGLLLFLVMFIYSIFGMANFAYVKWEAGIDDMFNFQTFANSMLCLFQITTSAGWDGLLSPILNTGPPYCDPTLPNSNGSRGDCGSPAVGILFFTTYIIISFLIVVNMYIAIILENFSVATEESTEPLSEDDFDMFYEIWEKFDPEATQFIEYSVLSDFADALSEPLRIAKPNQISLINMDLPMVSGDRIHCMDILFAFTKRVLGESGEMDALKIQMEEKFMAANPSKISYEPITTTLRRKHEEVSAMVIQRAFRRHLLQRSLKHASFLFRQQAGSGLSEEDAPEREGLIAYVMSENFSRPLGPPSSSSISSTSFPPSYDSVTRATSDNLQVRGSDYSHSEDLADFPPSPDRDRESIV
# How it was run: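 Whole-cell automated patch clamp at room temperature on HEK293 stably expressing human Nav1.5; holding −80 mV, 20 consecutive cardiomyocyte action-potential-like test pulses before and after compound (0.1% DMSO). Inhibition measured on inward current at 20th pulse; IC50 from concentration-response curve.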
# [1] = HEK293A cells stably expressing human Nav1.7 and human Navβ1, automated patch clamp QPatch16X
# [2] = HEK293 cells stably expressing human Nav1.5, automated patch clamp QPatch16X
# [3] = human Nav1.7, automated patch clamp
# [4] = human Nav1.5, automated patch clamp
# human Nav1.7, sequence (Q15858 whole entry): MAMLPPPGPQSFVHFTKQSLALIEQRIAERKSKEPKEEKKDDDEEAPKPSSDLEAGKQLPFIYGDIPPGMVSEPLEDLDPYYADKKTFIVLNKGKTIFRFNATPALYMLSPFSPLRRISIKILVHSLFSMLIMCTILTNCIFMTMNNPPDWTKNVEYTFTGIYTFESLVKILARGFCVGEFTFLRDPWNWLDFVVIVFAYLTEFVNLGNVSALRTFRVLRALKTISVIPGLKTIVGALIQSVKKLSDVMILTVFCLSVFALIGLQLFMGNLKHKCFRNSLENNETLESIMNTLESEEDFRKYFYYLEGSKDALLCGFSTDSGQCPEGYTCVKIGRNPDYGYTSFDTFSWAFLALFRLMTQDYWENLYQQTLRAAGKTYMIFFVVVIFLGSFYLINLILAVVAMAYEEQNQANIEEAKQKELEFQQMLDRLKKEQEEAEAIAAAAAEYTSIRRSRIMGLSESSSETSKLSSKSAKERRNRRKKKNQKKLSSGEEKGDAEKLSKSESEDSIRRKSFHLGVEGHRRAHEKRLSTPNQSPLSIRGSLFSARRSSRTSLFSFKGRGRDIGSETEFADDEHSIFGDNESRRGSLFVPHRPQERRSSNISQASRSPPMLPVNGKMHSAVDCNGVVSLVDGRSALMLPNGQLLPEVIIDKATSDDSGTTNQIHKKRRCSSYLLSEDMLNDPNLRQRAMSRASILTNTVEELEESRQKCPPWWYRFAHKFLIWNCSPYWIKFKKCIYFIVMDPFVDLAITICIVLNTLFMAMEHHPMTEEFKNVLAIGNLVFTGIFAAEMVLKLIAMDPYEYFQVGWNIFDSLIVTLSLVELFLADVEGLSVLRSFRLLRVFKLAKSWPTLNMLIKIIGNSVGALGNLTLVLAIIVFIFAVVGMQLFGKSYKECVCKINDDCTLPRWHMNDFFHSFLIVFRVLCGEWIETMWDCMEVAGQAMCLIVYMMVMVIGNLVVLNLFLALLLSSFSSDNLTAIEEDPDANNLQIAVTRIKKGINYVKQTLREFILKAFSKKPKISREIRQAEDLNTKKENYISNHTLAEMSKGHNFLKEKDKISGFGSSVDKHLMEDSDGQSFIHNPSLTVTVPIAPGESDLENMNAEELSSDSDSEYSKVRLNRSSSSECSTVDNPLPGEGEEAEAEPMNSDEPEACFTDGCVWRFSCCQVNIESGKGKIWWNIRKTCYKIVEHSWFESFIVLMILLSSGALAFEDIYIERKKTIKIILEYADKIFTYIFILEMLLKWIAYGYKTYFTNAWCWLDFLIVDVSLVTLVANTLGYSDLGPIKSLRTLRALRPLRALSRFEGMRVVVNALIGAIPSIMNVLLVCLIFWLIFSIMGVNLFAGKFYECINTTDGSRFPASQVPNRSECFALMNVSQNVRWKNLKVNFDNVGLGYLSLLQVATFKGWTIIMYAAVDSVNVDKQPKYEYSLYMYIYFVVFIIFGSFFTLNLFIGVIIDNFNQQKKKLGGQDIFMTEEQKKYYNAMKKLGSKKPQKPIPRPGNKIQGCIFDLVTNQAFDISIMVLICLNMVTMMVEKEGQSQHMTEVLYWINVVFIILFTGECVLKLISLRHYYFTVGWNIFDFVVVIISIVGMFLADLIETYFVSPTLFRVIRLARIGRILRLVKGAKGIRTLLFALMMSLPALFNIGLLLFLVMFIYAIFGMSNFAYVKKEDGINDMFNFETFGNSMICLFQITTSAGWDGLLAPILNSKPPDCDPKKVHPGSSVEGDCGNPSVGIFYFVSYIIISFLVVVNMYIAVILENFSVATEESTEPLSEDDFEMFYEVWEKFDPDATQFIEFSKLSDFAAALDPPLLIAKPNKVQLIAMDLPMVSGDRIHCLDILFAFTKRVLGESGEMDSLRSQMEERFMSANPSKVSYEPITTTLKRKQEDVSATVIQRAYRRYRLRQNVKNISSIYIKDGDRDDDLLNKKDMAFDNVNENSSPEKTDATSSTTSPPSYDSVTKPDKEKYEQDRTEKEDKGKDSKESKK
# human Nav1.7, sequence (Q07699 19-218 partner): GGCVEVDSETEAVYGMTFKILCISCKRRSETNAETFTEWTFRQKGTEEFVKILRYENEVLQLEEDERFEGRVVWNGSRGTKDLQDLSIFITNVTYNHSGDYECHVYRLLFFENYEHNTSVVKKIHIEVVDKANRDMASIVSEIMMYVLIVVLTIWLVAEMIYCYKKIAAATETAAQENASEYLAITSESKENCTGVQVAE
pIC50 (human Nav1.7; [1]),pIC50 (human Nav1.7; [3]),Compound,pIC50 (human Nav1.5; [2]),pIC50 (human Nav1.5; [4])
> 5.00,–,O=C(N[C@H]1COc2ccccc2C1)c1cn2c(n1)CNC(C1CCCC1)C2 (some centres unmarked) [Example 59],≤ 5.52,–
> 5.00,–,CN1Cc2nc(C(=O)NCCc3cccc(N4CCOCC4)c3)cn2CC1c1ccccc1 (centres unmarked) [Example 62],≤ 5.52,–
> 5.00,–,O=C(N[C@H]1COc2ccccc2C1)c1nc2n(c1-c1ccccc1)CCOC2 [Example 64],> 6.00,–
> 6.00,–,COc1cccc(-c2c(C(=O)N[C@H]3COc4ccc(Cl)cc4C3)nc3n2CCOC3)n1 [Example 65],> 6.00,–
> 5.00,–,O=C(N[C@H]1COc2ccc(Cl)cc2C1)c1nc2n(c1-c1ccccn1)CCOC2 [Example 66],> 6.00,–
> 6.00,–,O=C(N[C@H]1COc2ccc(C(F)(F)F)cc2C1)c1nc2n(c1-c1ccccn1)CCOC2 [Example 67],> 6.00,–
> 5.00,–,Cc1ccccc1C1CCn2nc(C(=O)N[C@H]3COc4ccccc4C3)cc2C1 (some centres unmarked) [Example 68],≤ 5.52,–
> 6.00,–,O=C(N[C@H]1COc2ccc(Br)cc2C1)c1cc2n(n1)CCC(c1ccccc1F)O2 (some centres unmarked) [Example 71],> 6.00,–
> 6.00,–,N#Cc1ccc2c(c1)C[C@@H](NC(=O)c1cc3n(n1)CCC(c1ccccc1C#N)O3)CO2 (some centres unmarked) [Example 72],≤ 5.52,–
> 6.00,–,COc1ncccc1C1CCn2nc(C(=O)N[C@H]3COc4ccc(C#N)cc4C3)cc2O1 (some centres unmarked) [Example 75],≤ 5.52,–
> 6.00,–,CCc1ccc2c(c1)C[C@@H](NC(=O)c1cc3n(n1)CCC(c1ccccc1F)O3)CO2 (some centres unmarked) [Example 76],≤ 5.52,–
> 6.00,–,O=C(NC1COc2cccc(Cl)c2C1)c1cc2n(n1)CCC(c1ccccc1)O2 (centres unmarked) [Example 77],≤ 5.52,–
> 5.00,–,O=C(NC1COc2cccc(OC(F)(F)F)c2C1)c1cc2n(n1)CCC(c1ccccc1)O2 (centres unmarked) [Example 78],≤ 5.52,–
> 5.00,–,CCOc1cccc(CCNC(=O)c2cc3n(n2)CCC(c2ccccc2)O3)c1 (centres unmarked) [Example 79],≤ 5.52,–
> 6.00,–,O=C(N[C@H]1COc2ccc(-c3ccncc3)cc2C1)c1cc2n(n1)CCC(c1ccccc1F)O2 (some centres unmarked) [Example 80],≤ 5.52,–
> 6.00,–,O=C(N[C@H]1COc2ccc(-c3ccccn3)cc2C1)c1cc2n(n1)CCC(c1ccccc1F)O2 (some centres unmarked) [Example 81],≤ 5.52,–
> 6.00,–,CCOCc1ccc2c(c1)C[C@@H](NC(=O)c1cc3n(n1)CCC(c1ccccc1F)O3)CO2 (some centres unmarked) [Example 83],5.52 to 6.00,–
> 5.00,–,O=C(N[C@H]1COc2ccc(COC3CCOCC3)cc2C1)c1cc2n(n1)CCC(c1ccccc1F)O2 (some centres unmarked) [Example 84],≤ 5.52,–
> 6.00,–,CC1CCn2nc(C(=O)N[C@H]3COc4ccc(Cl)cc4C3)cc2O1 (some centres unmarked) [Example 85],≤ 5.52,–
> 6.00,–,C[C@H]1CCn2nc(C(=O)N[C@H]3COc4ccc(Cl)cc4C3)cc2O1 [Example 86],≤ 5.52,–
> 5.00,–,C[C@@H]1CCn2nc(C(=O)N[C@H]3COc4ccc(Cl)cc4C3)cc2O1 [Example 87],≤ 5.52,–

pIC50 (human Nav1.7; [1]),pIC50 (human Nav1.7; [3]),Compound,pIC50 (human Nav1.5; [2]),pIC50 (human Nav1.5; [4])
> 6.00,–,CCC1CCn2nc(C(=O)N[C@H]3COc4ccc(Cl)cc4C3)cc2O1 (some centres unmarked) [Example 90],5.52 to 6.00,–
> 5.00,–,CCC1CCn2nc(C(=O)N[C@H]3COc4ccc(C#N)cc4C3)cc2O1 (some centres unmarked) [Example 91],≤ 5.52,–
> 6.00,–,CCCC1CCn2nc(C(=O)N[C@H]3COc4ccc(C#N)cc4C3)cc2O1 (some centres unmarked) [Example 94],5.52 to 6.00,–
> 6.00,–,N#Cc1ccc2c(c1)C[C@@H](NC(=O)c1cc3n(n1)CCC(CC1CC1)O3)CO2 (some centres unmarked) [Example 96],5.52 to 6.00,–
> 5.00,–,"CCCOCC1CCn2nc(C(=O)N[C@H]3COc4ccc(C#N)cc4C3)cc2O1 (stereo partly drawn) [Example 100, N—((R)-6-cyanochroman-3-yl)-5-(propoxymethyl)-6,7-dihydro-5H-pyrazolo[5,1-b][1,3]oxazine-2-carboxamide]",≤ 5.52,–
> 6.00,–,O=C(N[C@H]1COc2ccc(Cl)cc2C1)c1cc2n(n1)CCC(COCc1cccc(C(F)(F)F)n1)O2 (some centres unmarked) [Example 105],> 6.00,–
> 6.00,–,O=C(N[C@H]1COc2ccc(CC(F)F)cc2C1)c1cc2n(n1)CCC(COCC1CC1)O2 (some centres unmarked) [Example 108],5.52 to 6.00,–
> 6.00,–,O=C(N[C@H]1COc2ccc(-c3ccccn3)cc2C1)c1cc2n(n1)CCC(COCC1CC1)O2 (some centres unmarked) [Example 110],≤ 5.52,–
> 6.00,–,CC1(COCC2CCn3nc(C(=O)N[C@H]4COc5ccc(C#N)cc5C4)cc3O2)CC1 (some centres unmarked) [Example 112],≤ 5.52,–
> 6.00,–,O=C(N[C@H]1COc2ccc(Cl)cc2C1)c1cc2n(n1)CCC(COc1ccccn1)O2 (some centres unmarked) [Example 117],> 6.00,–
> 6.00,–,N#Cc1ccc2c(c1)C[C@@H](NC(=O)c1cc3n(n1)CCC(COc1ccccc1)O3)CO2 (some centres unmarked) [Example 118],> 6.00,–
> 5.00,–,O=C(N[C@H]1COc2ccc(Cl)cc2C1)c1cc2n(n1)CCC(CN1CCOCC1)O2 (some centres unmarked) [Example 122],≤ 5.52,–
> 5.00,–,CCOCC1CCn2nc(C(=O)N[C@H]3COc4ccc(-c5ccccn5)cc4C3)cc2O1 (some centres unmarked) [Example 123],≤ 5.52,–
> 5.00,–,CCOCC1CCn2nc(C(=O)N[C@H]3COc4ccc(-c5ccc(C#N)nc5)cc4C3)cc2O1 (some centres unmarked) [Example 125],≤ 5.52,–
> 6.00,–,O=C(N[C@H]1COc2ccc(CC(F)F)cc2C1)c1cc2n(n1)CCC(COCC(F)(F)F)O2 (some centres unmarked) [Example 126],5.52 to 6.00,–
> 5.00,–,O=C(N[C@H]1COc2ccc(-c3ccccn3)cc2C1)c1cc2n(n1)CCC(COCC(F)(F)F)O2 (some centres unmarked) [Example 130],≤ 5.52,–
> 6.00,–,O=C(N[C@H]1COc2ccc(CC(F)F)cc2C1)c1cc2n(n1)CCC(COC(F)(F)F)O2 (some centres unmarked) [Example 135],5.52 to 6.00,–
> 6.00,–,O=C(N[C@H]1COc2ccc(CC(F)F)cc2C1)c1cc2n(n1)CCC(COC(F)F)O2 (some centres unmarked) [Example 137],≤ 5.52,–
> 6.00,–,O=C(N[C@H]1COc2ccc(COCC(F)(F)F)cc2C1)c1cc2n(n1)CCC(COC(F)F)O2 (some centres unmarked) [Example 139],≤ 5.52,–
–,> 6.00,O=C(N[C@H]1COc2ccc(CCOC(F)F)cc2C1)c1cc2n(n1)CCC(COC(F)F)O2 (some centres unmarked) [Example 141],–,≤ 5.52
–,> 6.00,N#Cc1ccc2c(c1)C[C@@H](NC(=O)c1cc3n(n1)CCC(CCOC(F)(F)F)O3)CO2 (some centres unmarked) [Example 143],–,≤ 5.52

pIC50 (human Nav1.7; [1]),pIC50 (human Nav1.7; [3]),Compound,pIC50 (human Nav1.5; [2]),pIC50 (human Nav1.5; [4])
–,> 6.00,N#Cc1ccc2c(c1)C[C@@H](NC(=O)c1cc3n(n1)CCC(CCOC(F)F)O3)CO2 (some centres unmarked) [Example 145],–,≤ 5.52
–,> 6.00,O=C(N[C@H]1COc2ccc(CC(F)F)cc2C1)c1cc2n(n1)CCC(CCOC(F)F)O2 (some centres unmarked) [Example 147],–,≤ 5.52
–,> 6.00,O=C(N[C@H]1COc2ccc(COCC(F)(F)F)cc2C1)c1cc2n(n1)CCC(CCOC(F)F)O2 (some centres unmarked) [Example 149],–,5.52 to 6.00
–,> 6.00,O=C(N[C@H]1COc2ccc(Cl)cc2C1)c1cc2n(n1)CCC(CNCC(F)(F)F)O2 (some centres unmarked) [Example 151],–,5.52 to 6.00
–,> 5.00,N#Cc1ccc2c(c1)C[C@@H](NC(=O)c1cc3n(n1)CCC(CSC(F)(F)F)O3)CO2 (some centres unmarked) [Example 155],–,≤ 5.52
–,> 5.00,O=C(N[C@H]1COc2ccc(Cl)cc2C1)c1cc2n(n1)CCC(C(F)F)O2 (some centres unmarked) [Example 157],–,≤ 5.52
–,> 6.00,"O=C(N[C@H]1COc2ccc(Br)cc2C1)c1cc2n(n1)CCC(C(F)F)O2 (stereo partly drawn) [Example 159, N—((R)-6-bromochroman-3-yl)-5-(difluoromethyl)-6,7-dihydro-5H-pyrazolo[5,1-b][1,3]oxazine-2-carboxamide]",–,≤ 5.52
–,> 6.00,O=C(N[C@H]1COc2ccc(COCC(F)(F)F)cc2C1)c1cc2n(n1)CCC(C(F)F)O2 (some centres unmarked) [Example 162],–,≤ 5.52
–,> 6.00,O=C(N[C@H]1COc2ccc(CCOC(F)F)cc2C1)c1cc2n(n1)CCC(C(F)F)O2 (some centres unmarked) [Example 164],–,≤ 5.52
–,> 6.00,CC(F)(F)C1CCn2nc(C(=O)N[C@H]3COc4ccc(Cl)cc4C3)cc2O1 (some centres unmarked) [Example 167],–,5.52 to 6.00
–,> 5.00,CCC(O)(CC)C1CCn2nc(C(=O)N[C@H]3COc4ccc(Cl)cc4C3)cc2O1 (some centres unmarked) [Example 168],–,≤ 5.52
–,> 6.00,O=C(N[C@H]1COc2ccc(Cl)cc2C1)c1cc2n(n1)CCC(C(F)(F)F)O2 (some centres unmarked) [Example 169],–,5.52 to 6.00
–,> 6.00,O=C(N[C@H]1COc2ccc(Br)cc2C1)c1cc2n(n1)CCC(C(F)(F)F)O2 (some centres unmarked) [Example 171],–,5.52 to 6.00
–,> 5.00,O=C(N[C@H]1COc2ccc(CC(F)F)cc2C1)c1cc2n(n1)CCC(C(F)(F)F)O2 (some centres unmarked) [Example 172],–,≤ 5.52
–,> 6.00,N#Cc1ccc(-c2ccc3c(c2)C[C@@H](NC(=O)c2cc4n(n2)CCC(C(F)(F)F)O4)CO3)cn1 (some centres unmarked) [Example 174],–,≤ 5.52
–,> 5.00,Cc1ccc(-c2ccc3c(c2)C[C@@H](NC(=O)c2cc4n(n2)CCC(C(F)(F)F)O4)CO3)cn1 (some centres unmarked) [Example 175],–,≤ 5.52
–,> 6.00,CC1(C)CCn2nc(C(=O)N[C@H]3COc4ccc(Cl)cc4C3)cc2O1 [Example 177],–,5.52 to 6.00
–,> 5.00,CC1(C)CCn2nc(C(=O)N[C@H]3COc4ccc(C#N)cc4C3)cc2O1 [Example 178],–,≤ 5.52
–,> 6.00,O=C(N[C@H]1COc2ccccc2C1)c1cc2n(n1)CC(c1ccccc1)O2 (some centres unmarked) [Example 181],–,≤ 5.52
